For 1 compound, stability and solubility results are on record in patent publication US20100099652A1, “NOVEL COMPOSITION BASED ON CHOLEST-4-EN-3-ONE OXIME” (TROPHOS, priority 2007, published 2010).

A short description of series [1]: Stability of cholest-4-en-3-one oxime in different oils (impurities by HPLC UV at 255 nm). Conditions: 15 mg/ml, 60° C., 15 days. The class given is physicochemical. Here is the method:
The stability of cholest-4-en-3-one oxime was tested in 12 different oils. The compound is added to the oil at a concentration of 15 mg/ml in the form of micronized powder, and the mixture is placed in an oven at 60° C. for 15 days. […] The major impurity obtained is cholestenone. Other impurities can also appear, certain of which are known (and known to be stable), whereas other impurities appearing are unknown, and the potential toxicity or stability of which is therefore not known.
The product is considered to be very stable (++, very stable) in a given oil if after the incubation for 15 days in the oven at 60° C., the percentage of the measured total area under the curve of the chromatogram obtained corresponding to peaks of degradation products of cholest-4-en-3-one oxime represents less than 1%, and these are known, stable products. The product is considered stable (+, stable) in an oil if after the 15 days spent in the oven at 60° C., the percentage of the measured total area under the curve of the chromatogram obtained corresponding to peaks of degradation products of cholest-4-en-3-one oxime represents less than 1%, but corresponds to unknown degradation products. The product is considered unstable (−, instable) in an oil if after the 15 days spent in the oven at 60° C., the percentage of the measured total area under the curve of the chromatogram obtained corresponding to peaks of degradation products of cholest-4-en-3-one oxime represents more than 1%.

Series [2] in a line: Maximum solubility of cholest-4-en-3-one oxime in water and in different oils. Format: physicochemical.

Converted amounts (≈) assume the structure as drawn. Where only a bound is given, the exact number is not on record here.

By solubility is commonly meant the dissolved amount per volume that the medium holds. With `CC(C)CCC[C@@H](C)[C@H]1CC[C@H]2[C@@H]3CCC4=CC(=NO)CC[C@]4(C)[C@H]3CC[C@]12C` [cholest-4-en-3-one oxime], the stability entry in series [1] (Almond oil) is recorded as “− (major instability of the product in the oil tested, with release of more than 1% degradation products, over 2 weeks at 60° C.)”; in series [1] (Caster oil), “+ (compound which is stable in the oil tested, with release of less than 1% unknown degradation products, over 2 weeks at 60° C.)”; in series [1] (Corn oil) it was “− (major instability of the product in the oil tested, with release of more than 1% degradation products, over 2 weeks at 60° C.)”; in series [1] (Cotton oil), “++ (compound which is very stable in the oil tested, with release of less than 1% stable known degradation products, over 2 weeks at 60° C.)”; in series [1] (Ground nut oil), “+ (compound which is stable in the oil tested, with release of less than 1% unknown degradation products, over 2 weeks at 60° C.)”; in series [1] (Mixture of medium-chain triglycerides (ESTASAN ®, MYGLIOL ®)) it was “++ (compound which is very stable in the oil tested, with release of less than 1% stable known degradation products, over 2 weeks at 60° C.)”. For the same compound, the stability entry in series [1] (Oleic acid) is listed as “− (major instability of the product in the oil tested, with release of more than 1% degradation products, over 2 weeks at 60° C.)”; in series [1] (Olive oil), “++ (compound which is very stable in the oil tested, with release of less than 1% stable known degradation products, over 2 weeks at 60° C.)”; in series [1] (Rapeseed oil) it was “+ (compound which is stable in the oil tested, with release of less than 1% unknown degradation products, over 2 weeks at 60° C.)”; in series [1] (Sesame oil), “++ (compound which is very stable in the oil tested, with release of less than 1% stable known degradation products, over 2 weeks at 60° C.)”; in series [1] (Soya oil), “++ (compound which is very stable in the oil tested, with release of less than 1% stable known degradation products, over 2 weeks at 60° C.)”; in series [1] (Sunflower oil), “− (major instability of the product in the oil tested, with release of more than 1% degradation products, over 2 weeks at 60° C.)”. In addition, the solubility in series [2] (castor oil, oil or lipid) is < 15 mg/mL; in series [2] (cotton oil, oil or lipid), 28 mg/mL (≈ 70.1 mM); in series [2] (ground nut oil, oil or lipid) it was < 15 mg/mL; in series [2] (oil or lipid, Mixture of medium-chain triglycerides (ESTASAN ®, MYGLIOL ®)) it was 45 mg/mL (≈ 113 mM); in series [2] (olive oil, oil or lipid) it was 40 mg/mL (≈ 100 mM); in series [2] (rapeseed oil, oil or lipid), < 15 mg/mL. Moreover, the solubility in series [2] (sesame oil, oil or lipid) came out at 35 mg/mL (≈ 87.6 mM); in series [2] (soya oil, oil or lipid) it was 30 mg/mL (≈ 75.1 mM); in series [2] (water), 0.001 mg/mL (≈ 0.0025 mM).
